Values quoted from earlier work as cited in patent US6909006B1, “Cyclopropylindole derivatives” (priority 1999, dated 2005).

Tested on: tumour cells growing in vitro

In the case of `COc1c(O)c2c(c3cc(C(=O)N4CCc5c4c(O)c(OC)c4[nH]c(C(=O)N6CC7CC78C6=CC(=O)c6[nH]cc(C)c68)cc54)[nH]c13)CCN2C(N)=O` (stereo not shown) [CC-1065], the “IC50s in tumour cells growing in vitro” value is listed as “low pM range”.
